In patent US11789029B2, “Temporal traumatic brain injury biomarkers and methods of use thereof” (ARIZONA BOARD OF REGENTS ON BEHALF OF ARIZONA STATE …, priority 2019, dated 2023):
Entries after “also recorded” stand apart in the source; their conditions may differ. No end group written: not given here. bromoacetamide scaffold = not defined here

Key:
CCI injury sections = test: Immunohistochemistry of biotinylated HCDR3 constructs on CCI injury sections; type: binding, mice; conditions: for bioreactivity of control HCDR3 constructs on injured neural tissue: injured tissue at 1 or 7 days post-injury; for bioreactivity of chronic injury targeting HCDR3 constructs: 21 dpi tissue sections, 5 μM construct, Triton-X permeabilization
Procedure: Mice were subject to CCI or sham (n=3 per group/sex) as described previously and perfused with 0.1 M phosphate buffer and 4% paraformaldehyde at specified timepoints. Brains were fixed overnight in 4% paraformaldehyde at 4° C. followed by immersion in 15% sucrose and then 30% sucrose. Brains were flash frozen on dry ice in optimal cutting temperature medium and stored at −80° C. Samples were sectioned coronally at 20 μm thickness.
Tissue sections were incubated with excess streptavidin and biotin to block endogenous biotin using an Endogenous Biotin blocking kit (Thermo Fisher Scientific). After permeabilization with either 0.2% Triton-X 100 or Tween-20, 5 μM of biotinylated HCDR3-construct was incubated on tissue overnight at 4° C. Simultaneously, sections that served as controls were incubated with control HCDR3-construct or 1×PBS. Tissue sections were washed in 1×PBS and incubated with Alexa Fluor 555 streptavidin at room temperature for 2 hours, followed by 1×PBS washes and DAPI incubation for 5 minutes. Slides were imaged using fluorescence microscopy with Leica software.
For NGS analysis, raw counts were first normalized to reads per million (RPM) to account for library differences. A normalized z-score was then used as a threshold to identify dAbs that were highly represented and specific to their distinct injury timepoint. Selected dAbs were then screened for enrichment factor and individual frequency. Fluorescence percentage per area was conducted with ordinary one way ANOVA followed by Dunnett's test for multiple comparisons. Statistical significance was determined as p<0.05. Identified proteins that met the false discovery rate (FDR) threshold of <0.01 were used in all ontological assessments to categorize biological processes and candidate pathways.

tissue lysates = test: Immunoprecipitation-mass spectrometry with HCDR3 constructs as capture antibodies; type: binding, Mus musculus; conditions: A2 with 1 dpi tissue lysates, SA1 with 7 dpi tissue lysates
Source text: (§1) CCI and sham surgeries were completed as described previously. Mice were sacrificed at 1 d, 7 d, or 21 d post-injury (n=3/group) via transcardial perfusion with phosphate buffer, pH 7.4. The ipsilateral hemisphere of the brain was immediately dissected and homogenized in chilled lysis buffer (1×PBS, 1% Triton, protease inhibitor cocktail). Protein concentration of the homogenates was quantified with the Pierce BCA Protein Assay Kit (Thermo Fisher).
(§2) Streptavidin-coupled Dynabeads (Thermo Fisher) were washed with 1×PBST with 0.1% Tween and incubated with 1 mg/mL tissue lysate for 1 hour at room temperature. Pre-cleared lysate was collected after separation from magnetic beads and incubated with 450 pmol of HCDR3-construct rotating overnight at 4° C. to form the immune complex. The immune complex was then incubated with Streptavidin-coupled Dynabeads for 1 hour at room temperature before antigen was eluted from beads by heating sample at 95° C. with SDS PAGE running buffer. Samples were run on a pre-cast 12% SDS-PAGE gel (Bio-Rad) and bands were excised. Gel bands were processed by ASU Biodesign Mass Spectrometry Facility for digestion and protein identification with the Thermo Orbitrap Fusion Lumos (Thermo Fisher).
UniProt IDs of identified proteins were uploaded to the PANTHER classification system and searched against the Mus musculus reference database. […]

[1] = target: T1, citrate synthase, mitochondrial (Mus musculus, UniProt Q9CZU6); test: Immunoprecipitation-mass spectrometry, candidate protein; type: binding
T1 construct: The ipsilateral hemisphere of the brain was immediately dissected and homogenized in chilled lysis buffer; from tissue; host or cells: ipsilateral brain hemisphere lysate of CCI or sham mice
T1 sequence (Q9CZU6 28-464): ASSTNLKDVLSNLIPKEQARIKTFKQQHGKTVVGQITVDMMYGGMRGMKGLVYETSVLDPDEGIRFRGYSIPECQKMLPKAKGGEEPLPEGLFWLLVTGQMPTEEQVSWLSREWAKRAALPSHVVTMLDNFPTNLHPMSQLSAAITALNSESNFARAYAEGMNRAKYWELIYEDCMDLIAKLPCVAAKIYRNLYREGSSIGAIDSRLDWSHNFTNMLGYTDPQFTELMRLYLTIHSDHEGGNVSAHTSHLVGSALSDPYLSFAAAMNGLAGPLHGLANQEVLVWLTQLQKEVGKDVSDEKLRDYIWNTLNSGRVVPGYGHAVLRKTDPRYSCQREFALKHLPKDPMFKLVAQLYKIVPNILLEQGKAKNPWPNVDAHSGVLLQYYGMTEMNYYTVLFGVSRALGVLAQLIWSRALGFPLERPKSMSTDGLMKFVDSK
Source text: as §1, §2
(§3) UniProt IDs of identified proteins were uploaded to the PANTHER classification system and searched against the Mus musculus reference database. Ontological assessments to characterize cellular localization, molecular function, biological processes, and pathways were conducted with PANTHER Overrepresentation test (Fisher's Exact test, p<0.05 using Benjamini Hochberg False Discovery Rate correction) with the GO Ontology database (released 2019-10-08).

[2] = target: T2, Succinate--CoA ligase [ADP-forming] subunit beta, mitochondrial (Mus musculus, UniProt Q9Z2I9); test: as above; type: binding
T2 construct: The ipsilateral hemisphere of the brain was immediately dissected and homogenized in chilled lysis buffer; from tissue; host or cells: ipsilateral brain hemisphere lysate of CCI or sham mice
T2 sequence (Q9Z2I9 54-463): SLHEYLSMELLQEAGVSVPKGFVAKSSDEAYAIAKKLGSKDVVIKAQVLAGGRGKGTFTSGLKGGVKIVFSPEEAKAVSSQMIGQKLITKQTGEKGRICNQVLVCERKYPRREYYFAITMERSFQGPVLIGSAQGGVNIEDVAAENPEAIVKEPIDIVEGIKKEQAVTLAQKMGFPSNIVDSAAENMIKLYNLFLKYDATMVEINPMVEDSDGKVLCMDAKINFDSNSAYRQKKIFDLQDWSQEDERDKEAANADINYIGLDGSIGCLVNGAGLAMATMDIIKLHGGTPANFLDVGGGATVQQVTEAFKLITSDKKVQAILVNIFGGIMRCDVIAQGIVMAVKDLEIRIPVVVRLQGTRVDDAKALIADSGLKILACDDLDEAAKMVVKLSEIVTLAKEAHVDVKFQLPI
T2 sequence (Q9WUM5 35-346 partner): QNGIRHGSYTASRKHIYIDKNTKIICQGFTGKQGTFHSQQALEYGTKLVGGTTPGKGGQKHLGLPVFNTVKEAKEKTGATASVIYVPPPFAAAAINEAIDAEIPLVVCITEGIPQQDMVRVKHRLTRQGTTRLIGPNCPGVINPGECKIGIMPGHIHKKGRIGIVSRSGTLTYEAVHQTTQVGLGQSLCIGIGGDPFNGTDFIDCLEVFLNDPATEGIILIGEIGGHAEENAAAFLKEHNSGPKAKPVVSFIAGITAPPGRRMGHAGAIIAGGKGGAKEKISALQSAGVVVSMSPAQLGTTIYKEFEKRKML
Source text: as §1, §2, §3

[3] = target: T3, Heat shock cognate 71 kDa protein (Mus musculus, UniProt P63017); test: as above; type: binding
T3 construct: The ipsilateral hemisphere of the brain was immediately dissected and homogenized in chilled lysis buffer; from tissue; host or cells: ipsilateral brain hemisphere lysate of CCI or sham mice
T3 sequence (P63017 whole entry): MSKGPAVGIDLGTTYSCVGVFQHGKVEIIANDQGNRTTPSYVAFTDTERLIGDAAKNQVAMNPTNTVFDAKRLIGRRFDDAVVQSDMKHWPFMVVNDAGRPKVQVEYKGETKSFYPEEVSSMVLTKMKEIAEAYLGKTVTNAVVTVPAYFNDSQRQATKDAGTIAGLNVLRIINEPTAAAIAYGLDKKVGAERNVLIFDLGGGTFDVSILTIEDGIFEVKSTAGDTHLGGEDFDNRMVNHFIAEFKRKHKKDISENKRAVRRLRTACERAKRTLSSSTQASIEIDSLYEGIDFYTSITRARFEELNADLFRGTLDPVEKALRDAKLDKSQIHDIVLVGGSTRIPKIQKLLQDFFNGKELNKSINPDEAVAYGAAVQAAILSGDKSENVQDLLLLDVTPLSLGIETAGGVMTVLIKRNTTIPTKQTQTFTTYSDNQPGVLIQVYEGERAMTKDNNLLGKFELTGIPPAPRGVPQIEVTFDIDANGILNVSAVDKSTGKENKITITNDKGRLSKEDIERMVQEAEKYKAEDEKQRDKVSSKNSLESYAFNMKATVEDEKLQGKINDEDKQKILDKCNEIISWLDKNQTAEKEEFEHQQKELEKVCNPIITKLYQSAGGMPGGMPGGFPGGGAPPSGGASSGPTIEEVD
Source text: as §1, §2, §3

[4] = target: T4, Endoplasmic reticulum chaperone BiP (Mus musculus, UniProt P20029); test: as above; type: binding
T4 construct: The ipsilateral hemisphere of the brain was immediately dissected and homogenized in chilled lysis buffer; from tissue; host or cells: ipsilateral brain hemisphere lysate of CCI or sham mice
T4 sequence (P20029 20-655): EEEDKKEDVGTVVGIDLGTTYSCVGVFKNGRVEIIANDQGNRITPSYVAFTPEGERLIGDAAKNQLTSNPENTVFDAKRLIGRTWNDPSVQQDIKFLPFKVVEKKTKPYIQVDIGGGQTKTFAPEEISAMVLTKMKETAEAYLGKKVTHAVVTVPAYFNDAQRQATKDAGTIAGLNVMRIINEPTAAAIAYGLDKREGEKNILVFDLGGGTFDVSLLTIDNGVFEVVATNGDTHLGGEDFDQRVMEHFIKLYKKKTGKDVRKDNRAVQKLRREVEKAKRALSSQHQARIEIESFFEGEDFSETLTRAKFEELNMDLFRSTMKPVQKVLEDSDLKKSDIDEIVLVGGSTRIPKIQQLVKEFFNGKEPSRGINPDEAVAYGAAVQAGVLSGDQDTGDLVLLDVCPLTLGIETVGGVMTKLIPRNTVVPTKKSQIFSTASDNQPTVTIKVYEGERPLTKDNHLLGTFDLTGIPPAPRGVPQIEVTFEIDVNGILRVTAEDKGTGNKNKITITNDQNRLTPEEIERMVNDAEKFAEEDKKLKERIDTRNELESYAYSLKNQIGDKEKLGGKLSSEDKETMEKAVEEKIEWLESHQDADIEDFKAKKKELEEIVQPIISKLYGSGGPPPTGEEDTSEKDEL
Source text: as §1, §2, §3

GGDTFRDASQSMHF [dAb-CDR3, reference compound]
bioreactivity of control HCDR3 constructs on injured neural tissue (CCI injury sections): no detectable bioreactivity

GPLDGKEEELRF [SP-CDR3, reference compound]
bioreactivity of control HCDR3 constructs on injured neural tissue (CCI injury sections): no detectable bioreactivity

RLVRESSQEHTLSS [CH1, 5, chronic injury]
bioreactivity of chronic injury targeting HCDR3 constructs (CCI injury sections): negligible bioreactivity

SLYGSSRHTAPISF (linker (positions not given here) via bromoacetamide scaffold; not fully specified; reading uncertain; also: cyclized on bromoacetamide scaffold with biotin, sites not given here) [A2, 2, acute stage; peptide cyclized on bromoacetamide scaffold containing biotin]
immunoprecipitation eluate separated by SDS-PAGE (tissue lysates): isolated proteins unique to the injury condition | sensitivity and affinity to the peri-injury region (CCI injury sections; 1 day post-injury compared to sham, subacute, and chronic tissue sections): high sensitivity and affinity | bioreactivity determined by the fluorescence on 1 dpi tissue (CCI injury sections; in comparison to sham (p=0.0120) and 7 days post-injury tissue (p=0.0221)): significant bioreactivity | bioreactivity, 1 days post-injury versus 21 days post injury tissue (CCI injury sections; p=0.0658): No significant differences | # Peptides [1]: 3 | # Peptides [2]: 4

TAERDARTFQY (linker (positions not given here) via bromoacetamide scaffold; not fully specified; reading uncertain; also: cyclized on bromoacetamide scaffold with biotin, sites not given here) [A1, 1, acute stage; peptide cyclized on bromoacetamide scaffold containing biotin]
IHC signal on injured tissue (CCI injury sections; fixed mouse brain tissue at 1 dpi): no detectable signal; also recorded: did not show detectable bioreactivity

TDCQETPYELKS [CH2, 6, chronic injury]
bioreactivity of chronic injury targeting HCDR3 constructs (CCI injury sections): non-specific staining

TDLAVAHPVRY (linker (positions not given here) via bromoacetamide scaffold; not fully specified; reading uncertain; also: cyclized on bromoacetamide scaffold with biotin, sites not given here) [SA1, 3, subacute stage; peptide cyclized on bromoacetamide scaffold containing biotin]
immunoprecipitation eluate separated by SDS-PAGE (tissue lysates): isolated proteins unique to the injury condition | stain in the peri-injury region of injured tissue (CCI injury sections; 7 days post-injury tissue): Positive stain; also recorded: positively binding | bioreactivity, 7 days post-injury versus 1 days post-injury or 21 days post-injury tissue (CCI injury sections; p=0.0993 (1 dpi), p=0.0780 (21 dpi)): No significant differences | localization of stain in sham brain sections (CCI injury sections; sham brain sections, p=0.0079 versus 7 days post-injury): not observed | # Peptides [3]: 6 | # Peptides [4]: 6

TGHEGENEMAS [HE-CDR3, reference compound]
bioreactivity of control HCDR3 constructs on injured neural tissue (CCI injury sections): no detectable bioreactivity
